Experiment [1] concerns the target T1, ALOX-isoform of P. nyererei (putative ALOX15 ortholog) (Pundamilia nyererei, UniProt A0A3B4GKQ4).
T1 construct: gene alox12; cell lysate supernatant used (activity lost on purification)
T1 sequence (A0A3B4GKQ4 1-670): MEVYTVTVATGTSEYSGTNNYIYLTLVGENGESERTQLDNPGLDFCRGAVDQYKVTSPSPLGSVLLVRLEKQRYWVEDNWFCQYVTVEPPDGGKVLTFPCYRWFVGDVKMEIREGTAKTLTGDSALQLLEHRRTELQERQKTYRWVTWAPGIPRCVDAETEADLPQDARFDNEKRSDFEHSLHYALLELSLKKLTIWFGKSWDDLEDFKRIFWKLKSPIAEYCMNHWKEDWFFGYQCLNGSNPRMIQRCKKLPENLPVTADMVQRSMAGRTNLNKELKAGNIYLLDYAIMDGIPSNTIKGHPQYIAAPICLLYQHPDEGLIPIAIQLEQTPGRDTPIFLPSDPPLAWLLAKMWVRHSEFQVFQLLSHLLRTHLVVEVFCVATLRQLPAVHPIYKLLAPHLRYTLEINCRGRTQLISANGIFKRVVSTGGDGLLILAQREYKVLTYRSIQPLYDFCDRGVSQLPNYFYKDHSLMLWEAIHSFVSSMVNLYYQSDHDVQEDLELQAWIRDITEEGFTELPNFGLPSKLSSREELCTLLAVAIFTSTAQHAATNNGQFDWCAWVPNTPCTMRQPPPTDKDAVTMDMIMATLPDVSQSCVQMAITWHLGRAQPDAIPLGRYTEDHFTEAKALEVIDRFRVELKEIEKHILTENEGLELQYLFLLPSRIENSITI
Briefly: lysate supernatant oxygenation assay, RP-HPLC / NP-HPLC of products. Format: biochemical. To be noted: 100 µM AA; 3 min; products after reduction 12-HETE (major) and 8-HETE.

In experiment [2] the target is T2, ALOX-isoform of N. furzeri (putative ALOX15 ortholog) (Nothobranchius furzeri, UniProt A0A1A7ZHE9).
T2 construct: gene ALOX12; cell lysate supernatant used (activity lost on purification)
T2 sequence (A0A1A7ZHE9 1-670): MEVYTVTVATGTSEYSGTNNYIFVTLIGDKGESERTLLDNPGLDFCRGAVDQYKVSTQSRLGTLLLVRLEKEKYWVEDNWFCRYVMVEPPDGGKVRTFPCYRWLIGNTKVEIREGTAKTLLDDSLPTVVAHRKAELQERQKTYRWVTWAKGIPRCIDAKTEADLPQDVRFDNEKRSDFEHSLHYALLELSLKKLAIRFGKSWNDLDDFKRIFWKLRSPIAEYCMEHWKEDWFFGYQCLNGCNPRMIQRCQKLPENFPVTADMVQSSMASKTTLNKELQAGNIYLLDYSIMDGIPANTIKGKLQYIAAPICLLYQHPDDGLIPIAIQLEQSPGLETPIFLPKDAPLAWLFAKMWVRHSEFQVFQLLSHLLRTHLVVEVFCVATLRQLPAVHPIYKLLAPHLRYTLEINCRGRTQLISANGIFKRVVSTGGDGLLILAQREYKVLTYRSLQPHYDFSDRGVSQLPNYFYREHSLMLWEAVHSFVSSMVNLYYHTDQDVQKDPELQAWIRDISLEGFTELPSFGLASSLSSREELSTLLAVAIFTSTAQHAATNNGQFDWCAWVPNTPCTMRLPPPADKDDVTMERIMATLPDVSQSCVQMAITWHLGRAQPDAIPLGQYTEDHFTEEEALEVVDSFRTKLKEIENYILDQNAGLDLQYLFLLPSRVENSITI
Described as above. To be noted: 100 µM AA; 3 min; products after reduction 12-HETE (major) and 8-HETE. The experiment is classed as biochemical.

`CCCCC/C=C\C/C=C\C/C=C\C/C=C\CCCC(=O)O` [AA, arachidonic acid]: the “lysate supernatant oxygenation assay, RP-HPLC / NP-HPLC of products” value in experiment [1] and in experiment [2] was “AA is oxygenated by the three bony fish ALOX-isoforms to a mixture of 12-HETE” each time.

(Values after article PMC9787790, “Functional Characterization of Novel Bony Fish Lipoxygenase Isoforms and Their Possible Involvement in Inflammation” (International Journal of Molecular Sciences, 2022).)
